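How tested: cells in 96-well plates exposed to compound for 48 hours at five concentrations. TGI: concentration producing complete growth inhibition.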
Experiments:
Test in all cases: DTP human tumour cell line panel, 48 h
[1] = tested on: 786-0 renal
[2] = tested on: A498 renal
[3] = tested on: A549 NSCLC
[4] = tested on: ACHN renal
[5] = tested on: BT-549 breast
[6] = tested on: CAKI-1 renal
[7] = tested on: CCRF-CEM leukemia
[8] = tested on: COLO 205 colon
[9] = tested on: DU-145 prostate
[10] = tested on: EKVX NSCLC
[11] = tested on: HCC-2998 colon
[12] = tested on: HCT-116 colon
[13] = tested on: HL-60(TB) leukemia
[14] = tested on: HOP-62 NSCLC
[15] = tested on: HT29 colon
[16] = tested on: IGROV1 ovarian
[17] = tested on: K-562 leukemia
[18] = tested on: KM12 colon
[19] = tested on: LOX IMVI melanoma
[20] = tested on: MALME-3M melanoma
[21] = tested on: MCF7 breast
[22] = tested on: MDA-MB-435
[23] = tested on: MDA-N
[24] = tested on: MOLT-4 leukemia
[25] = tested on: NCI-H226 lung
[26] = tested on: NCI-H23 lung
[27] = tested on: NCI-H460 lung
[28] = tested on: NCI/ADR-RES ovarian
[29] = tested on: OVCAR-3 ovarian
[30] = tested on: OVCAR-4 ovarian
[31] = tested on: OVCAR-5 ovarian
[32] = tested on: OVCAR-8 ovarian
[33] = tested on: RPMI-8226 leukemia
[34] = tested on: RXF 393 renal
[35] = tested on: SF-268 CNS
[36] = tested on: SF-295 CNS
[37] = tested on: SF-539 CNS
[38] = tested on: SK-MEL-28 melanoma
[39] = tested on: SK-MEL-5 melanoma
[40] = tested on: SK-OV-3 ovarian
[41] = tested on: SNB-19 CNS
[42] = tested on: SNB-75 CNS
[43] = tested on: SW-620 colon
[44] = tested on: T-47D breast
[45] = tested on: TK-10 renal
[46] = tested on: U251 CNS
[47] = tested on: UO-31 renal
[48] = tested on: HCT-15 colon
[49] = tested on: HOP-92 NSCLC
[50] = tested on: HS 578T breast
[51] = tested on: MDA-MB-231 breast
[52] = tested on: NCI-H522 lung
[53] = tested on: PC-3 prostate
[54] = tested on: SK-MEL-2 melanoma
[55] = tested on: SN12C renal
[56] = tested on: SR leukemia
[57] = tested on: UACC-257 melanoma
[58] = tested on: UACC-62 melanoma
[59] = tested on: M14 melanoma

O=P(O)(CN1CCN(CP(=O)(O)c2ccccc2)CCN(CP(=O)(O)c2ccccc2)CC1)c1ccccc1
TGI [1]: > 100 µM
TGI [2]: 88.6 µM
TGI [3]: > 100 µM
TGI [4]: > 100 µM
TGI [5]: > 100 µM
TGI [6]: > 100 µM
TGI [7]: > 100 µM
TGI [8]: > 100 µM
TGI [9]: > 100 µM
TGI [10]: > 100 µM
TGI [11]: > 100 µM
TGI [12]: > 100 µM
TGI [13]: > 100 µM
TGI [14]: > 100 µM
TGI [15]: > 100 µM
TGI [16]: > 100 µM
TGI [17]: > 100 µM
TGI [18]: > 100 µM
TGI [19]: > 100 µM
TGI [20]: > 100 µM
TGI [21]: > 100 µM
TGI [22]: > 100 µM
TGI [23]: > 100 µM
TGI [24]: > 100 µM
TGI [25]: > 100 µM
TGI [26]: > 100 µM
TGI [27]: > 100 µM
TGI [28]: > 100 µM
TGI [29]: > 100 µM
TGI [30]: > 100 µM
TGI [31]: > 100 µM
TGI [32]: > 100 µM
TGI [33]: > 100 µM
TGI [34]: > 100 µM
TGI [35]: > 100 µM
TGI [36]: > 100 µM
TGI [37]: > 100 µM
TGI [38]: > 100 µM
TGI [39]: > 100 µM
TGI [40]: > 100 µM
TGI [41]: > 100 µM
TGI [42]: > 100 µM
TGI [43]: > 100 µM
TGI [44]: > 100 µM
TGI [45]: > 100 µM
TGI [46]: > 100 µM
TGI [47]: > 100 µM

COC(=O)/C(C#N)=C(\N)c1c(C)c2ccccc2oc1=N
TGI [1]: > 100 µM
TGI [2]: > 100 µM
TGI [3]: > 100 µM
TGI [5]: > 100 µM
TGI [8]: > 100 µM
TGI [9]: > 100 µM
TGI [10]: > 100 µM
TGI [12]: > 100 µM
TGI [48]: > 100 µM
TGI [13]: > 100 µM
TGI [14]: > 100 µM
TGI [49]: > 100 µM
TGI [50]: > 100 µM
TGI [16]: > 100 µM
TGI [17]: > 100 µM
TGI [18]: > 100 µM
TGI [19]: > 100 µM
TGI [21]: > 100 µM
TGI [51]: > 100 µM
TGI [22]: > 100 µM
TGI [23]: > 100 µM
TGI [24]: > 100 µM
TGI [27]: > 100 µM
TGI [52]: > 100 µM
TGI [29]: > 100 µM
TGI [30]: > 100 µM
TGI [31]: > 100 µM
TGI [53]: > 100 µM
TGI [33]: > 100 µM
TGI [34]: > 100 µM
TGI [36]: > 100 µM
TGI [37]: > 100 µM
TGI [54]: > 100 µM
TGI [38]: > 100 µM
TGI [39]: > 100 µM
TGI [40]: > 100 µM
TGI [55]: > 100 µM
TGI [41]: > 100 µM
TGI [42]: > 100 µM
TGI [56]: > 100 µM
TGI [43]: > 100 µM
TGI [44]: > 100 µM
TGI [45]: > 100 µM
TGI [46]: > 100 µM
TGI [57]: > 100 µM
TGI [58]: > 100 µM

O=c1c2ccccc2[nH]c2c(Cl)cc(Cl)c(N3CCCCC3)c12
TGI [1]: > 10 µM
TGI [2]: 81 µM
TGI [3]: > 100 µM
TGI [4]: 65.7 µM
TGI [5]: > 100 µM
TGI [6]: 97.1 µM
TGI [7]: > 10 µM
TGI [8]: > 100 µM
TGI [10]: > 100 µM
TGI [11]: > 100 µM
TGI [12]: > 100 µM
TGI [48]: > 100 µM
TGI [13]: 74.7 µM
TGI [14]: > 100 µM
TGI [15]: 32.6 µM
TGI [16]: 48.2 µM
TGI [17]: > 10 µM
TGI [18]: 54.9 µM
TGI [19]: > 100 µM
TGI [59]: 88.9 µM
TGI [21]: > 100 µM
TGI [51]: > 100 µM
TGI [22]: 55.8 µM
TGI [23]: 63.1 µM
TGI [24]: > 100 µM
TGI [25]: 62 µM
TGI [26]: 76.5 µM
TGI [52]: 64.3 µM
TGI [28]: 83.4 µM
TGI [29]: > 100 µM
TGI [30]: > 100 µM
TGI [31]: > 100 µM
TGI [32]: > 100 µM
TGI [53]: > 100 µM
TGI [33]: > 100 µM
TGI [36]: > 100 µM
TGI [37]: 46.6 µM
TGI [54]: 59.1 µM
TGI [38]: > 100 µM
TGI [39]: > 100 µM
TGI [40]: > 100 µM
TGI [55]: 55.8 µM
TGI [41]: 77.9 µM
TGI [42]: > 100 µM
TGI [56]: > 100 µM
TGI [43]: 84.8 µM
TGI [44]: > 100 µM
TGI [45]: > 100 µM
TGI [46]: 62.4 µM
TGI [57]: > 100 µM
TGI [58]: > 10 µM
TGI [47]: 55.5 µM

CC1(C)OC(=O)C(Cc2ccccc2)(Cc2ccccc2)C(=O)O1
TGI [1]: > 100 µM
TGI [3]: > 100 µM
TGI [4]: > 100 µM
TGI [5]: > 100 µM
TGI [6]: > 100 µM
TGI [7]: > 100 µM
TGI [8]: > 100 µM
TGI [9]: > 100 µM
TGI [10]: > 100 µM
TGI [11]: > 100 µM
TGI [12]: > 100 µM
TGI [48]: > 100 µM
TGI [13]: > 100 µM
TGI [14]: > 100 µM
TGI [50]: > 100 µM
TGI [15]: > 100 µM
TGI [16]: > 100 µM
TGI [17]: > 100 µM
TGI [18]: > 100 µM
TGI [19]: > 100 µM
TGI [59]: > 100 µM
TGI [20]: > 100 µM
TGI [21]: > 100 µM
TGI [51]: > 100 µM
TGI [23]: > 100 µM
TGI [24]: > 100 µM
TGI [25]: > 100 µM
TGI [26]: > 100 µM
TGI [27]: > 100 µM
TGI [52]: > 100 µM
TGI [28]: > 100 µM
TGI [30]: > 100 µM
TGI [31]: > 100 µM
TGI [32]: > 100 µM
TGI [53]: > 100 µM
TGI [34]: > 100 µM
TGI [35]: > 100 µM
TGI [36]: > 100 µM
TGI [37]: > 100 µM
TGI [54]: > 100 µM
TGI [38]: > 100 µM
TGI [39]: > 100 µM
TGI [40]: > 100 µM
TGI [55]: > 100 µM
TGI [42]: > 100 µM
TGI [56]: > 100 µM
TGI [43]: > 100 µM
TGI [44]: > 100 µM
TGI [45]: > 100 µM
TGI [46]: > 100 µM
TGI [57]: > 100 µM
TGI [58]: > 100 µM
TGI [47]: > 100 µM

— PubChem BioAssay (NCI)
